# Source: US7071215B2 (Pharmacia & Upjohn Company LLC, priority 2002, dated 2006)
# Assay: binding assay as described in U.S. Pat. No. 5,859,188 (Geary, et al., 1999): displacement of a radiolabelled ligand
# Settings: percent displacement of a radiolabelled ligand at 25 micromolar
# Procedure: Selected compounds were evaluated for their anti-parasitic activity in a binding assay as described in U.S. Pat. No. 5,859,188 (Geary, et al., 1999). Results of the evaluations are given in Table 2 wherein “% Inhibition” means percent displacement of a radiolabelled ligand at 25 micromolar as described.
row,Compound,% Inhibition
1,"O=C(CN1CCCC(O)C1)Nc1sc2c(c1C(=O)c1ccc(Cl)cc1)CCOC2 (stereo not shown) [Compound 3, N-[3-(4-chlorobenzoyl)-4,7-dihydro-5H-thieno[2,3-c]pyran-2-yl]-2-(3-hydroxypiperidin-1-yl)acetamide]",96–97%
2,O=C(CN1CCCCCC1)Nc1sc2c(c1C(O)c1ccc(Cl)cc1)CCSC2 (stereo not shown) [Compound 24],11–58%
3,"O=C(CN1CCCCC1)Nc1sc2c(c1C(O)c1ccc(Cl)cc1)CCOC2 (stereo not shown) [Compound 2, N-{3-[(4-chlorophenyl)(hydroxy)methyl]-4,7-dihydro-5H-thieno[2,3-c]pyran-2-yl}-2-piperidin-1-ylacetamide]",85–95%
4,"O=C(CN1CCCCC1)Nc1sc2c(c1C(=O)c1ccc(Cl)cc1)CCOC2 [Compound 1, N-[3-(4-chlorobenzoyl)-4,7-dihydro-5H-thieno[2,3-c]pyran-2-yl]-2-piperidin-1-ylacetamide]",93–99%
5,"O=C(CN1CCCC(O)C1)Nc1sc2c(c1C(O)c1ccc(Cl)cc1)CCOC2 (stereo not shown) [Compound 4, N-{3-[(4-chlorophenyl)(hydroxy)methyl]-4,7-dihydro-5H-thieno[2,3-c]pyran-2-yl}-2-(3-hydroxypiperidin-1-yl)acetamide]",72–84%
6,O=C(CN1CCCCC1)Nc1sc2c(c1C(=O)c1cccc(F)c1)CCSC2 [Compound 56],99–100%
7,O=C(CN1CCCCC1)Nc1sc2c(c1C(=O)c1cccs1)CCSC2 [Compound 37],0–66%

# Now from value to compound:
row,% Inhibition,Compound
1,92–94%,O=C(CN1CCCC(O)C1)Nc1sc2c(c1C(=O)c1cccc(C(F)(F)F)c1)CCSC2 (stereo not shown) [Compound 33]
2,100%,O=C(CN1CCCC(O)C1)Nc1sc2c(c1C(=O)c1ccc(F)c(F)c1)CCSC2 (stereo not shown) [Compound 55]
3,21–38%,O=C(CN1CCCC(O)C1)Nc1sc2c(c1C(=O)c1ccco1)CCSC2 (stereo not shown) [Compound 10]
4,11–79%,Cc1ccc(C(=O)c2c(NC(=O)CN3CCCC(O)C3)sc3c2CCSC3)cc1 (stereo not shown) [Compound 28]
5,86–88%,O=C(CN1CCCC(O)C1)Nc1sc2c(c1C(O)c1ccc(Cl)cc1)CCSC2 (stereo not shown) [Compound 20]
6,100%,Cc1ccc(C(O)c2c(NC(=O)CN3CCCC(O)C3)sc3c2CCSC3)cc1 (stereo not shown) [Compound 40]
7,19–20%,O=C(CN1CCCC(O)C1)Nc1sc2c(c1C(=O)c1ccc(F)cc1)CCSC2 (stereo not shown) [Compound 53]
8,46–55%,O=C(CN1CCCC(O)C1)Nc1sc2c(c1C(O)c1cccs1)CCSC2 (stereo not shown) [Compound 49]
9,93–97%,O=C(CN1CCCC(O)C1)Nc1sc2c(c1C(O)c1ccc(F)cc1)CCSC2 (stereo not shown) [Compound 54]
